{"source": "patent US12624031B2", "about": "“Inhibitors of ubiquitin specific peptidase 22 (USP22) and uses thereof for treating diseases and disorders” (Northwestern University, priority 2022, dated 2026)", "key": {"[1]": {"tested_on": "PD-L1 expression in A549 cells", "experiment": "PD-L1 expression in A549 cells by flow cytometry", "format": "cell-based, human", "settings": "Homo sapiens; A549 cells, 48 hours; unit inferred; read-out: IC50 inhibition of PD-L1 expression", "experimental": "FIG. 13: The effects of USP22i-S02-S106 on suppression of PD-L1 expression on human lung adenocarcinoma cells. Human […] lung adenocarcinoma A549 cells were treated with S02-S106 or its lead compound S02 for 48 hours. The expression levels of PD-L1 were determined by flow cytometry. (A) Representative flow data from A549 cells treated with 2 μM S02-S106 or with 15 μM S02 are shown. DMSO treated cells were used as an untreated control and USP22 CRISPR knockout A549 cells were used as a positive control. (B) The dose-dependent inhibition of PD-L1 expression in A549 cells by S02-S106 with USP22i-S02 as a control. Data were normalized with PD-L1 expression levels in USP22-KO cells as 100% of USP22 inhibition as shown in A. (C) Inhibition of PD-L1 expression in WT and USP22-null A549 cells by S02-S106.\nWe then used PD-L1 expression level as a measurement to evaluate the inhibitory efficacy of USP22 by S02-S106.\nTo determine the specificity of USP22i-S02-S106, we treated the WT and USP22-null lung cancer cells."}, "[2]": {"tested_on": "FoxP3 and PD-L1 expression", "experiment": "biological screening of FoxP3 and PD-L1 expression", "format": "cell-based", "settings": "inhibition of FoxP3 and PD-L1 expression", "experimental": "Biological screening confirmed that USP22i-S02 inhibited the expression of FoxP3 and PD-L1 expression in a USP22-dependent manner. The IC50 is about 6-7 uM. […] In particular, modifications at the R position at A-Ring, or R1 and R2 at E-Ring are likely to improve its biological activity. Therefore, we used the SYBYL drug design software and generated a chemical library of 40400 derivatives (named as USP22-S02X) by modifying the A or/and E ring with 200 functional groups at the R or R1 or R2 or two of the three positions."}, "naïve mice": {"tested_on": "naïve mice", "experiment": "toxicity and Treg phenotype in naïve mice", "format": "in vivo", "experimental": "B, FOXP3 MFI in WT and 22KO of Treg cells after treatment with 20 μg/kg of Usp22i-S02 in vivo (n=3). C, Representative flow cytometry plot of FOXP3+CD25+MFI of CD4+ peripheral cells of mice treated with 20 μg/kg of Usp22i-S 02 relative to control (n=5). D, Graphical representation of Foxp3 MFI upon Usp22i-S02 administration (n=5). E, Tumor growth curve of LLC1 cells subcutaneously injected in the flank of WT mice with or without the addition of 20 mg/kg/time of the Usp22 inhibitor starting at day 15, in 100 μL of oil (n=4). F-G, Representative flow cytometry plot and graphical representation of % infiltration of CD4+ and CD8+ T cells within the tumor (n=4). H, Representative histogram plot and graphical representation of intratumoral Treg (itTreg) Foxp3 MFI (n=4). I, MFI of itTreg suppressive markers (n=3-4). J, Percent Foxp3+IFNg+itTreg cells in control and Usp22-S02 treated mice (n=3-4). B, D-E, G, H-I Two-way ANOVA with multiple comparisons between rows was performed to determine statistical significance. J, Unpaired two tailed T test was performed to determine significance. All data are presented as mean±stdev. NS, not significant. *P<0.05, **P<0.01, ***P<0.001, ****P<0.0001.\nA, Body weight of Usp22i-S02 treated mice verses DMSO treated controls over the course of treatment (n=4). A-F. Injections were twice a day for 3 consecutive days at 10 μg/kg (n=4). B, Percent of cell populations in naïve mice treated with Usp22i-S02 relative to DMSO control (n=3-4). […] D, Percent CD44^hiCD62L^lo in T cell populations gated on CD45+ cells in naïve mice treated with Usp22i-S02 relative to DMSO control (n=3). E, Percent Annexin+PI+ T cells gates on CD45+ cells in naïve mice treated with Usp22i-S02 relative to DMSO control (n=4). F-H, Organ toxicity panel (VetScan VS2 Comprehensive Diagnostic Rotor lot 1061AA2) of naïve mice treated with Usp22i-S02 relative to DMSO control (n=2-3). I, Growth curve of subcutaneously injected LLC1 in WT mice treated with Usp22i-S02 at 10 μg/kg (n=5-10). I-Q, Injections were twice a day for 5 consecutive days at 10 μg/kg. J, Weights of resected tumors at day 16 from I (n=10). K-L, Representative flow plot and graphical representation of infiltrating T cells gated on CD45+ cells (n=5). M-P, Characterization of intratumoral CD8+ T cells frome mice treated with Usp22i-S02 (n=3-5). Q, Percent of intratumoral Treg cells from mice treated with Usp22i-S02 verses DMSO control, gated on CD4+Foxp3+ from mice (n=5). A-E, I and L, Two-way ANOVA with Sidaks's multiple comparisons between rows relative to control was performed to determine statistical significance. F-H, J, and M-Q, Two-tailed unpaired t-test was performed to determine statistical significance. All data are presented as mean±stdev. NS, not significant. *P<0.05, **P<0.01, ***P<0.001, ****P<0.0001.\nAn important aspect of a potential immunotherapeutic is its antitumor functionality paired with low immune toxicity. To determine the toxicity of Usp22i-S02 in vivo, we first determined its effects in naïve mice."}, "LLC1 cells": {"tested_on": "LLC1 cells", "experiment": "LLC1 cell counts, viability and growth in vitro", "format": "cell-based", "settings": "24 hours various concentrations; 10 ug/ml for 7 days", "experimental": "FIG. 8: Usp22i-S02 inhibits tumor growth in vitro and in vivo. A, In vitro counts of LLC1 after treatment with Usp22i-S02 under various concentrations for 24 hours (n=2). B, In vitro viability of LLC1 after treatment with Usp22i-S02 under various concentrations for 24 hours (n=2). C, In vitro relative growth of LLC1 cells treated with 10 ug/ml of Usp22i-S02 relative to DMSO treated control for 7 days via OD600 (n=4). D, Growth curve of 1 million subcutaneously injected LLC1 cells into RAG−/− mice treated for 3 days Usp22i-S02 relative to DMSO control injections at day 15 of tumor growth (n=4). C-D, Two-way ANOVA with Sidaks's multiple comparisons between rows relative to control was performed to determine statistical significance. All data are presented as mean±stdev. NS, not significant. *P<0.05, **P<0.01, ***P<0.001, ****P<0.0001.\nAs Usp22 is also an important oncogene, we were interested in the potential dual-therapeutic function of Usp22i-S02."}}}
{"smiles": "N#Cc1c2c(c(Nc3ccccc3)n3c1nc1ccccc13)CCCC2", "note": "[USP22i-S02, 11-anilino-7,8,9,10-tetrahydrobenzimidazo[1,2-b]isoquinoline-6-carbonitrile]", "values": [{"measurement": "IC50", "setting": "[1]", "result": 13.7, "unit": "µM"}, {"measurement": "IC50", "setting": "[2]", "result": "6 to 7", "unit": "µM"}, {"measurement": "FOXP3 MFI in Usp22-KO mice", "setting": "naïve mice; Usp22-KO mice, 20 μg/kg", "result": "no additional decrease to FOXP3 MFI"}, {"measurement": "FOXP3 MFI in Treg cells from spleen and lymph nodes", "setting": "naïve mice; WT mice, 20 μg/kg", "result": "significant drop in FOXP3 MFI"}, {"measurement": "Treg cell death", "setting": "naïve mice; naïve mice", "result": "significantly increased"}, {"measurement": "Treg percentage", "setting": "naïve mice; naïve mice", "result": "decrease in Treg percentage"}, {"measurement": "Treg proliferation", "setting": "naïve mice; naïve mice", "result": "also increased"}, {"measurement": "organ toxicity (comprehensive tissue panel)", "setting": "naïve mice; naïve mice versus DMSO control", "result": "no organ toxicity differences"}, {"measurement": "weights, B cell and Teff cell percentages and proliferation, Teff cell activation", "setting": "naïve mice; naïve mice versus DMSO-treated control, twice a day for 3 days at 10 μg/kg", "result": "little alteration"}, {"measurement": "LLC1 tumor cell counts, viability and growth in vitro", "setting": "LLC1 cells", "result": "decreased tumor cell counts, viability, and growth"}]}
